Reference: PubChem BioAssay AID1963862 (Molecular Pharmacology Branch, DTP, NCI, 2024)

System: KRAS patient-derived spheroids with HUVEC/MSC, viability
Assay: Anticancer human tumor 941728-121-R-J1-PDC patient-derived lung adenocarcinoma cell line growth inhibition [KRAS2]
Conditions: for IC50: curve of first compound; for viability, T/C: stronger effect = lower value
Summary of the method: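 Combination screen of spheroid viability in tumor-cell co-cultures with endothelial (HUVEC) and mesenchymal stem cell stroma. Each agent was tested in half-log dilutions, topping at clinical Cmax or at 10 microM without a known Cmax.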

[1] = second compound 0.1 µM, first compound 0.0316 µM
[2] = second compound 0.1 µM, first compound 0.1 µM
[3] = second compound 0.1 µM, first compound 0.316 µM
[4] = second compound 0.1 µM, first compound 1 µM
[5] = second compound 0.1 µM, first compound 3.16 µM
[6] = second compound 0.1 µM, first compound 10 µM
[7] = second compound 0.316 µM, first compound 0.0316 µM
[8] = second compound 0.316 µM, first compound 0.1 µM
[9] = second compound 0.316 µM, first compound 0.316 µM
[10] = second compound 0.316 µM, first compound 1 µM
[11] = second compound 0.316 µM, first compound 3.16 µM
[12] = second compound 0.316 µM, first compound 10 µM
[13] = second compound 1 µM, first compound 0.0316 µM
[14] = second compound 1 µM, first compound 0.1 µM
[15] = second compound 1 µM, first compound 0.316 µM
[16] = second compound 1 µM, first compound 1 µM
[17] = second compound 1 µM, first compound 3.16 µM
[18] = second compound 1 µM, first compound 10 µM
[19] = second compound 3.16 µM, first compound 0.0316 µM
[20] = second compound 3.16 µM, first compound 0.1 µM
[21] = second compound 3.16 µM, first compound 0.316 µM
[22] = second compound 3.16 µM, first compound 1 µM
[23] = second compound 3.16 µM, first compound 3.16 µM
[24] = second compound 3.16 µM, first compound 10 µM
[25] = second compound 10 µM, first compound 0.0316 µM
[26] = second compound 10 µM, first compound 0.1 µM
[27] = second compound 10 µM, first compound 0.316 µM
[28] = second compound 10 µM, first compound 1 µM
[29] = second compound 10 µM, first compound 3.16 µM
[30] = second compound 10 µM, first compound 10 µM
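Note: spheroids exposed to agents for seven days before readout.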

Structure (SMILES) | IC50 (second compound 0.1 µM) [nM] | IC50 (second compound 0.316 µM) [nM] | IC50 (second compound 1 µM) [nM] | IC50 (second compound 3.16 µM) [nM] | IC50 (second compound 10 µM) [nM] | viability, T/C [1] [%] | viability, T/C [2] [%] | viability, T/C [3] [%] | viability, T/C [4] [%] | viability, T/C [5] [%] | viability, T/C [6] [%] | viability, T/C [7] [%] | viability, T/C [8] [%] | viability, T/C [9] [%] | viability, T/C [13] [%] | viability, T/C [14] [%] | viability, T/C [19] [%] | viability, T/C [20] [%] | viability, T/C [25] [%] | viability, T/C [26] [%] | also measured
CC(C)NCC(C(=O)N1CCN(c2ncnc3c2C(C)CC3O)CC1)c1ccc(Cl)cc1 (stereo not given) + CNCc1ccccc1-c1csc(C(C)Nc2nc(C)nc3cc(OC)c(OC)cc23)c1 | 218 | < 31.6 | < 31.6 | < 31.6 | < 31.6 | 68.6 | 57 | 47.9 | 33.3 | 28.1 | 16.6 | 42.3 | 42.9 | 29.1 | 23.9 | 33.2 | 0.08 | 0.12 | 0.16 | 0.15 | viability, T/C [10]: 24.7%; viability, T/C [11]: 22.4%; viability, T/C [12]: 12.4%; viability, T/C [15]: 21.2%; viability, T/C [16]: 16.1%; viability, T/C [17]: 6.11%; viability, T/C [18]: 4.4%; viability, T/C [21]: 0.11%; viability, T/C [22]: 0.08%; viability, T/C [23]: 0.04%; viability, T/C [24]: 0.16%; viability, T/C [27]: 0.12%; viability, T/C [28]: 1.66%; viability, T/C [29]: 0.11%; viability, T/C [30]: 0.25%
CC(C)n1nc(-c2ccc3oc(N)nc3c2)c2c(N)ncnc21 + CNCc1ccccc1-c1csc(C(C)Nc2nc(C)nc3cc(OC)c(OC)cc23)c1 | 0.668 | < 0.316 | < 0.316 | < 0.316 | < 0.316 | 34.5 | 31.4 | – | – | – | – | 24.1 | 16.6 | – | 11 | 7.65 | 0.08 | 0.13 | 0.67 | 0.72 | viability, T/C (second compound 0.1 µM, first compound 0.000316 µM): 49%; viability, T/C (second compound 0.1 µM, first compound 0.001 µM): 59.2%; viability, T/C (second compound 0.1 µM, first compound 0.00316 µM): 37.3%; viability, T/C (second compound 0.1 µM, first compound 0.01 µM): 34.3%; viability, T/C (second compound 0.316 µM, first compound 0.000316 µM): 44.7%; viability, T/C (second compound 0.316 µM, first compound 0.001 µM): 45.2%; viability, T/C (second compound 0.316 µM, first compound 0.00316 µM): 35.9%; viability, T/C (second compound 0.316 µM, first compound 0.01 µM): 23.1%; viability, T/C (second compound 1 µM, first compound 0.000316 µM): 34.8%; viability, T/C (second compound 1 µM, first compound 0.001 µM): 29.3%; viability, T/C (second compound 1 µM, first compound 0.00316 µM): 15.9%; viability, T/C (second compound 1 µM, first compound 0.01 µM): 13.6%; viability, T/C (second compound 3.16 µM, first compound 0.000316 µM): 0.15%; viability, T/C (second compound 3.16 µM, first compound 0.001 µM): 0.16%; viability, T/C (second compound 3.16 µM, first compound 0.00316 µM): 0.1%; viability, T/C (second compound 3.16 µM, first compound 0.01 µM): 0.11%; viability, T/C (second compound 10 µM, first compound 0.000316 µM): 0.58%; viability, T/C (second compound 10 µM, first compound 0.001 µM): 0.43%; viability, T/C (second compound 10 µM, first compound 0.00316 µM): 2.78%; viability, T/C (second compound 10 µM, first compound 0.01 µM): 0.67%
CC1(C)CCC(CN2CCN(c3ccc(C(=O)NS(=O)(=O)c4ccc(NCC5CCOCC5)c([N+](=O)[O-])c4)c(Oc4cnc5[nH]ccc5c4)c3)CC2)=C(c2ccc(Cl)cc2)C1 + CNCc1ccccc1-c1csc(C(C)Nc2nc(C)nc3cc(OC)c(OC)cc23)c1 | < 31.6 | < 31.6 | < 31.6 | < 31.6 | < 31.6 | 41.7 | 41.8 | 41.4 | 39.2 | 6.99 | 4.92 | 39.8 | 36 | 33.4 | 27 | 31.7 | 0.19 | 0.17 | 0.11 | 0.11 | viability, T/C [10]: 35.1%; viability, T/C [11]: 7.18%; viability, T/C [12]: 2.59%; viability, T/C [15]: 23.2%; viability, T/C [16]: 22.6%; viability, T/C [17]: 4.9%; viability, T/C [18]: 1.48%; viability, T/C [21]: 0.27%; viability, T/C [22]: 0.69%; viability, T/C [23]: 0.04%; viability, T/C [24]: 0.12%; viability, T/C [27]: 0.09%; viability, T/C [28]: 0.33%; viability, T/C [29]: 0.1%; viability, T/C [30]: 0.12%
